Experimental data published in PubChem BioAssay (NCI).
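1) Cells in 96-well plates. 2) Compound, 48 h, 5 concentrations. 3) Linear interpolation between surrounding doses. 4) Unreached endpoint = highest concentration. The concentration for full growth arrest is given as TGI.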

Experiments:
Assay in all cases: NCI anticancer screen, dose series, 48 h
KM20L2 colon = system: KM20L2 colon
LXFL 529 NSCLC = system: LXFL 529 NSCLC
M19-MEL melanoma = system: M19-MEL melanoma
DLD-1 colon = system: DLD-1 colon
DMS 273 small cell lung = system: DMS 273 small cell lung
HOP-18 NSCLC = system: HOP-18 NSCLC
RXF-631 renal = system: RXF-631 renal
SNB-78 CNS = system: SNB-78 CNS
XF 498 CNS = system: XF 498 CNS

Measured: TGI

Cc1nc2ccccc2c(=O)n1NC(=S)Nc1ccc(Cl)cc1[N+](=O)[O-]
> 100 µM: KM20L2 colon | LXFL 529 NSCLC | M19-MEL melanoma

Brc1cc2c(cc1C1SCCS1)OCO2
> 100 µM: DLD-1 colon | DMS 273 small cell lung | HOP-18 NSCLC | KM20L2 colon | LXFL 529 NSCLC | RXF-631 renal | SNB-78 CNS

COc1ccccc1/C=C1\CCC(CCN2CCOCC2)C1=O (centres undefined)
> 100 µM: DLD-1 colon | DMS 273 small cell lung | HOP-18 NSCLC | KM20L2 colon | LXFL 529 NSCLC | M19-MEL melanoma | RXF-631 renal | SNB-78 CNS | XF 498 CNS

Cc1nn(C)cc1P(=S)(c1ccccc1)c1ccccc1
> 100 µM: DLD-1 colon | DMS 273 small cell lung | HOP-18 NSCLC | KM20L2 colon | LXFL 529 NSCLC | M19-MEL melanoma | SNB-78 CNS | XF 498 CNS

COc1ccc(C=C(c2ccc(OCc3ccccc3)cc2)c2ccc(OCc3ccccc3)cc2)cc1
> 100 µM: DLD-1 colon | DMS 273 small cell lung | HOP-18 NSCLC | KM20L2 colon | LXFL 529 NSCLC | M19-MEL melanoma | RXF-631 renal | SNB-78 CNS | XF 498 CNS

NC(N)=NS(=O)(=O)c1ccc(Nc2c3ccccc3nc3c(C(=O)Nc4ccc(S(N)(=O)=O)cc4)ccc(Cl)c23)cc1
> 100 µM: DLD-1 colon | DMS 273 small cell lung | HOP-18 NSCLC | KM20L2 colon | LXFL 529 NSCLC | M19-MEL melanoma | RXF-631 renal | SNB-78 CNS | XF 498 CNS

Cc1ccc(C(=O)OCC(C)C)cc1N=NN(C)C
> 100 µM: DLD-1 colon | DMS 273 small cell lung | KM20L2 colon | LXFL 529 NSCLC | M19-MEL melanoma | SNB-78 CNS

O=[N+]([O-])c1c(C=Nc2ccccc2)oc(-c2ccc3c(c2)OCO3)c1-c1ccc2c(c1)OCO2
> 100 µM: DLD-1 colon | DMS 273 small cell lung | KM20L2 colon | LXFL 529 NSCLC | M19-MEL melanoma | RXF-631 renal | SNB-78 CNS | XF 498 CNS

CC(=O)c1cccc(NC(=O)C(=O)Nn2c(N)nnc2N)c1
> 100 µM: DLD-1 colon | DMS 273 small cell lung | HOP-18 NSCLC | KM20L2 colon | LXFL 529 NSCLC | M19-MEL melanoma | SNB-78 CNS | XF 498 CNS

COc1cc(/C=C\c2cccnc2)cc(OC)c1OC
> 100 µM: DLD-1 colon | DMS 273 small cell lung | HOP-18 NSCLC | KM20L2 colon | LXFL 529 NSCLC | M19-MEL melanoma | SNB-78 CNS | XF 498 CNS

COc1cc(/C=C2\C(=O)N(C(=O)c3ccc(NC(C)=O)cc3)N=C2C)ccc1O
> 100 µM: DLD-1 colon | DMS 273 small cell lung | HOP-18 NSCLC | M19-MEL melanoma | SNB-78 CNS

O=c1[nH]cnc2c1CCCN2
> 100 µM: DLD-1 colon | HOP-18 NSCLC | KM20L2 colon | LXFL 529 NSCLC | M19-MEL melanoma | SNB-78 CNS

Cc1nn(-c2nc3ccccc3s2)c2c1C(=O)c1ccccc1-2
> 100 µM: DLD-1 colon | DMS 273 small cell lung | HOP-18 NSCLC | KM20L2 colon | LXFL 529 NSCLC | M19-MEL melanoma | SNB-78 CNS

CCOc1ccc(NC(=O)C2=C(C)NC(C)=C(C(=O)Nc3ccc(OCC)cc3)C2c2ccccc2)cc1
> 100 µM: DLD-1 colon | DMS 273 small cell lung | KM20L2 colon | LXFL 529 NSCLC | M19-MEL melanoma | RXF-631 renal | SNB-78 CNS | XF 498 CNS

CN1Cc2cc3c(cc2-c2ccccc21)OCO3
> 100 µM: DLD-1 colon | DMS 273 small cell lung | HOP-18 NSCLC | KM20L2 colon | LXFL 529 NSCLC | M19-MEL melanoma | SNB-78 CNS | XF 498 CNS
